# According to patent publication US20060089395A1, “Nf-kb activation inhibitors” (priority 2002, published 2006):
# “Also recorded” adds a separate entry of the source. Where two headings read alike, the source gives them in different places.
# How the values were obtained:
# NF-κ B = experiment: Inhibitory activity of NF-κ B activation, luciferase reporter assay in HepG2 under TNF-α stimulation; type: cell-based, human
# How it was run: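 HepG2 cells transiently transfected with a luciferase reporter driven by five tandem NF-κB binding sites, then incubated 6–24 h. Stimulated with TNF-α (40 ng/ml) with or without test compound for 4 h. Intracellular luciferase read by chemiluminescence; inhibition expressed relative to activity without compound.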
# IL-6 = experiment: Inhibition of IL-6 production by TNFα stimulation in synovial fibroblasts derived from a rheumatoid patient (ELISA); type: cell-based, human; conditions: for inhibition of the production of IL-6 (in words): rheumatic patient-derived synovial fibroblasts under TNFα stimulation; for IC50: synovial fibroblasts, 10 ng/ml TNFα, 3 days, read-out: Inhibition against Mediator Release IC50(nM) IL-6
# Method: (§1) Synovial fibroblasts (Human Synoviocyte (RA-Positive), Toyobo, T4040-05) were cultured for 3 days in a medium containing 10 ng/ml of TNFα and a test compound. IL-6 and IL-8 in the supernatant were measured by the ELISA method, and PGE2 (prostaglandin E2) was measured by the EIA method.
# IL-8 = experiment: Inhibition of IL-8 production by TNFα stimulation in synovial fibroblasts derived from a rheumatoid patient (ELISA); type: cell-based, human; conditions: for inhibition of the production of IL-8 (in words): rheumatic patient-derived synovial fibroblasts under TNFα stimulation; for IC50: synovial fibroblasts, 10 ng/ml TNFα, 3 days, read-out: Inhibition against Mediator Release IC50(nM) IL-8
# Method: as §1
# PGE2 = experiment: Inhibition of PGE2 production by TNFα stimulation in synovial fibroblasts derived from a rheumatoid patient (EIA); type: cell-based, human; conditions: for inhibition of the production of PGE2 (in words): rheumatic patient-derived synovial fibroblasts under TNFα stimulation; for IC50: synovial fibroblasts, 10 ng/ml TNFα, 3 days, read-out: Inhibition against Mediator Release IC50(nM) PGE2
# Method: as §1
# [1] = system: type II collagen induced arthritis; experiment: Inhibitory test against type II collagen induced arthritis in mice; type: in vivo, Balb/c mice; conditions: 10 mg/kg intraperitoneally once in two days; day 44; score of the control = 100%
# Method: Balb/c mice were immunized with heterologous type II collagen and Freund's complete adjuvant by subcutaneous or intraperitoneal injection. At 21 days after the treatment, these mice were immunized again with heterologous type II collagen and Freund's incomplete adjuvant by subcutaneous or intraperitoneal injection to develop arthritis.
# A test substance suspended in an appropriate diluent or the diluent alone (negative control) was administered intraperitoneally once in two days from the day of the first immunization, and as for arthritis developed after the second immunization, clinical symptoms of each ankle joint of all foots were recorded day after day as numerous scores. When the score of the control measured on day 44 after administration of 10 mg/kg of the medicament of the present invention was expresses as 100%, rates of exacerbation (%) of the clinical symptoms of arthritis were 37.5 (Compound No. 4), 76.5 (Compound No. 90), 56.2 (Compound No. 11), 64.0 (Compound No. 88), and 0.0 (Compound No. 83).
# [2] = system: Vascular smooth muscle cells of normal coronary artery (Cryo CASMC); experiment: Inhibitory test against proliferation of vascular smooth muscle cells of normal coronary artery under proliferation stimulation (MTS assay); type: cell-based; conditions: FGF and EGF stimulation, 72 hours
# Method: Vascular smooth muscle cells of normal coronary artery (Cryo CASMC) were cultured for 2 hours in the presence or absence of a test substance in DMEM medium containing 0.5% of FBS and insulin (5 u g/ml). Then, FGF and EGF were added for proliferation stimulation. The mixture was cultured for 72 hours and proliferation of the cells were measured by the MTS assay. The results aree shown in the following
# [3] = 1 μg/mL, HepG2, TNF-α (40 ng/ml), 4 hours
# [4] = 10 μg/mL, HepG2, TNF-α (40 ng/ml), 4 hours
# [5] = Homo sapiens, 1 μg/mL, HepG2, TNF-α (40 ng/ml), 4 hours, read-out: Inhibitory Ratio of NF-κ B Activation(%) Drug Concentration 1 μg/mL
# [6] = Homo sapiens, 10 μg/mL, HepG2, TNF-α (40 ng/ml), 4 hours, read-out: Inhibitory Ratio of NF-κ B Activation(%) Drug Concentration 10 μg/mL
structure (smiles),measurement,setting,value
O=C(Nc1cc(C(F)(F)F)ccc1Cl)c1cc(Br)ccc1O [Compound No. 90],Inhibitory Ratio of NF-κ B Activation(%) Drug Concentration 1 μg/mL,NF-κ B; [3],88.9%
same,Inhibitory Ratio of NF-κ B Activation(%) Drug Concentration 10 μg/mL,NF-κ B; [4],94.1%
same,inhibition of the production of IL-6 (in words),IL-6,potently inhibited; also recorded: strongly inhibited
same,IC50,IL-6,24 nM
same,inhibition of the production of IL-8 (in words),IL-8,potently inhibited; also recorded: strongly inhibited
same,IC50,IL-8,373 nM
same,inhibition of the production of PGE2 (in words),PGE2,potently inhibited; also recorded: strongly inhibited
same,IC50,PGE2,38 nM
same,rates of exacerbation (%) of the clinical symptoms of arthritis,[1],76.5%
same,Inhibitory Ratio of Proliferation(%) Compound Concentration 250 nM,[2],89.5%
same,Inhibitory Ratio of Proliferation(%) Compound Concentration 500 nM,[2],95.2%
"CC(C)(C)C(=O)c1sc(NC(=O)c2cc(Cl)ccc2O)nc1C(C)(C)C [Compound No.199, 5-Chloro-N-{4-[(1,1-dimethyl)ethyl]-5-[(2,2-dimethyl)propionyl]thiazol-2-yl)-2-hydroxybenzamide]",inhibition at 0.1 µg/mL,"NF-κ B; Homo sapiens, HepG2, 4 h, 0.1 μg/ml, comparison table, reporter assay, read-out: Inhibitory Ratio of NF-κB Activation (%) 0.1 μg/ml",19.6%
same,inhibition at 1 µg/mL,"NF-κ B; Homo sapiens, HepG2, 4 h, 1 μg/ml, comparison table, reporter assay, read-out: Inhibitory Ratio of NF-κB Activation (%) 1 μg/ml",96.4%
same,inhibition at 10 µg/mL,"NF-κ B; Homo sapiens, HepG2, 4 h, 10 μg/ml, comparison table, reporter assay, read-out: Inhibitory Ratio of NF-κB Activation (%) 10 μg/ml",98.4%
same,inhibition at 1 µg/mL,NF-κ B; [5],96.4%
same,inhibition at 10 µg/mL,NF-κ B; [6],98.4%
same,IC50,"IL-6; Homo sapiens, Fibroblast, 72 h",309 nM
same,IC50,"IL-8; Homo sapiens, Fibroblast, 72 h",458 nM
same,IC50,"PGE2; Homo sapiens, Fibroblast, 72 h",68 nM
same,Inhibitory Ratio of Proliferation(%) Compound Concentration 250 nM,[2],35.1%
same,Inhibitory Ratio of Proliferation(%) Compound Concentration 500 nM,[2],84.6%
O=C(Nc1cc(C(F)(F)F)cc(C(F)(F)F)c1)c1ccc(Cl)cc1O [Compound No. 51],Inhibitory Ratio of NF-κ B Activation(%) Drug Concentration 1 μg/mL,NF-κ B; [3],90.5%
same,Inhibitory Ratio of NF-κ B Activation(%) Drug Concentration 10 μg/mL,NF-κ B; [4],98.2%
same,IC50,IL-6,874 nM
same,IC50,IL-8,832 nM
same,IC50,PGE2,863 nM
same,Inhibitory Ratio of Proliferation(%) Compound Concentration 250 nM,[2],26.2%
same,Inhibitory Ratio of Proliferation(%) Compound Concentration 500 nM,[2],86.6%
O=C(Nc1cc(C(F)(F)F)cc(C(F)(F)F)c1)c1cc(-c2ccccc2)ccc1O [Compound No. 23],Inhibitory Ratio of NF-κ B Activation(%) Drug Concentration 1 μg/mL,NF-κ B; [3],91.8%
same,Inhibitory Ratio of NF-κ B Activation(%) Drug Concentration 10 μg/mL,NF-κ B; [4],96.8%
same,IC50,IL-6,540 nM
same,IC50,IL-8,876 nM
same,IC50,PGE2,809 nM
same,Inhibitory Ratio of Proliferation(%) Compound Concentration 250 nM,[2],31.6%
same,Inhibitory Ratio of Proliferation(%) Compound Concentration 500 nM,[2],89%
COc1cc(NC(=O)c2cc(Br)ccc2O)cc(C(F)(F)F)c1 [Compound No. 93],Inhibitory Ratio of NF-κ B Activation(%) Drug Concentration 1 μg/mL,NF-κ B; [3],84.5%
same,Inhibitory Ratio of NF-κ B Activation(%) Drug Concentration 10 μg/mL,NF-κ B; [4],97.2%
same,IC50,IL-6,130 nM
same,IC50,IL-8,753 nM
same,IC50,PGE2,47 nM
same,Inhibitory Ratio of Proliferation(%) Compound Concentration 250 nM,[2],12.1%
same,Inhibitory Ratio of Proliferation(%) Compound Concentration 500 nM,[2],87.2%
"CC(=O)Oc1ccccc1C(=O)Nc1cc(Cl)cc(Cl)c1 [Compound No. 120, 2-acetoxy-N-(3,5-dichlorophenyl)benzamide]",inhibition at 1 µg/mL,NF-κ B; [5],88.6%
same,inhibition at 10 µg/mL,NF-κ B; [6],97.5%
same,melting point,,218 to 219 °C
CC(C)(C)c1cc(NC(=O)c2cc(Br)ccc2O)cc(C(C)(C)C)c1 [Compound No. 140],Inhibitory Ratio of NF-κ B Activation(%) Drug Concentration 1 μg/mL,NF-κ B; [3],70.9%
same,Inhibitory Ratio of NF-κ B Activation(%) Drug Concentration 10 μg/mL,NF-κ B; [4],82.0%
same,IC50,IL-6,808 nM
same,IC50,PGE2,21 nM
same,Inhibitory Ratio of Proliferation(%) Compound Concentration 250 nM,[2],4.3%
same,Inhibitory Ratio of Proliferation(%) Compound Concentration 500 nM,[2],86.1%
"O=C(Nc1cc(C(F)(F)F)ccc1Cl)c1cc(Cl)ccc1O [Compound No. 88, 5-chloro-N-[2-chloro-5-(trifluoromethyl)phenyl]-2-hydroxybenzamide]",inhibition at 1 µg/mL,NF-κ B; [5],94.8%
same,inhibition at 10 µg/mL,NF-κ B; [6],97.1%
same,IC50,"IL-6; Homo sapiens, Fibroblast, 72 h",88 nM
same,inhibition of the production of IL-6 (in words),IL-6,potently inhibited; also recorded: strongly inhibited
same,inhibition of the production of IL-8 (in words),IL-8,potently inhibited; also recorded: strongly inhibited
same,IC50,"PGE2; Homo sapiens, Fibroblast, 72 h",33 nM
same,inhibition of the production of PGE2 (in words),PGE2,potently inhibited; also recorded: strongly inhibited
same,rates of exacerbation (%) of the clinical symptoms of arthritis,[1],64.0%
"O=C(Nc1cc(C(F)(F)F)cc(C(F)(F)F)c1)c1cc(C(=O)N2CCC(Cc3ccccc3)CC2)ccc1O [Compound No. 40, N-[3,5-Bis(trifluoromethyl)phenyl]-2-hydroxy-5-(4-benzylpiperidine-1-carbonyl)benzamide]",inhibition at 1 µg/mL,NF-κ B; [5],44.9%
same,inhibition at 10 µg/mL,NF-κ B; [6],96%
same,melting point,,179 to 180 °C
O=C(Nc1cc(C(F)(F)F)ccc1C(F)(F)F)c1cc(Br)ccc1O [Compound No. 83],Inhibitory Ratio of NF-κ B Activation(%) Drug Concentration 1 μg/mL,NF-κ B; [3],95.7%
same,Inhibitory Ratio of NF-κ B Activation(%) Drug Concentration 10 μg/mL,NF-κ B; [4],98.3%
same,inhibition of the production of IL-6 (in words),IL-6,potently inhibited; also recorded: strongly inhibited
same,IC50,IL-6,< 10 nM
same,inhibition of the production of IL-8 (in words),IL-8,potently inhibited; also recorded: strongly inhibited
same,IC50,IL-8,62 nM
same,inhibition of the production of PGE2 (in words),PGE2,potently inhibited; also recorded: strongly inhibited
same,IC50,PGE2,< 10 nM
same,rates of exacerbation (%) of the clinical symptoms of arthritis,[1],0.0%
same,Inhibitory Ratio of Proliferation(%) Compound Concentration 250 nM,[2],27.1%
same,Inhibitory Ratio of Proliferation(%) Compound Concentration 500 nM,[2],87.9%
"CC(C)(C)c1nc(NC(=O)c2cc(Br)ccc2O)sc1N1CCN(c2ccccc2)CC1 [Compound No. 207, 5-Bromo-N-{4-[(1,1-dimethyl)ethyl]-5-(4-phenylpiperazin-1-yl)thiazol-2-yl}-2-hydroxybenzamide]",inhibition at 1 µg/mL,NF-κ B; [5],92.5%
same,inhibition at 10 µg/mL,NF-κ B; [6],95.9%
same,IC50,"IL-6; Homo sapiens, Fibroblast, 72 h",641 nM
same,IC50,"IL-8; Homo sapiens, Fibroblast, 72 h",832 nM
same,IC50,"PGE2; Homo sapiens, Fibroblast, 72 h",834 nM
same,Inhibitory Ratio of Proliferation(%) Compound Concentration 250 nM,[2],52.5%
same,Inhibitory Ratio of Proliferation(%) Compound Concentration 500 nM,[2],84%
"CC(C)(C)c1ccc(O)c(C(=O)Nc2cc(C(F)(F)F)cc(C(F)(F)F)c2)c1 [compound 11, N-[3,5-Bis(trifluoromethyl)phenyl]-5-[(1,1-dimethyl)ethyl]-2-hydroxybenzamide]",inhibition at 1 µg/mL,NF-κ B; [5],92.9%
same,inhibition at 10 µg/mL,NF-κ B; [6],98.3%
same,IC50,"IL-6; Homo sapiens, Fibroblast, 72 h",247 nM
same,IC50,"IL-8; Homo sapiens, Fibroblast, 72 h",377 nM
same,IC50,"PGE2; Homo sapiens, Fibroblast, 72 h",389 nM
same,rates of exacerbation (%) of the clinical symptoms of arthritis,[1],56.2%
same,Inhibitory Ratio of Proliferation(%) Compound Concentration 250 nM,[2],86.7%
same,Inhibitory Ratio of Proliferation(%) Compound Concentration 500 nM,[2],91.4%
CC(C)(C)C(=O)c1sc(NC(=O)c2cc(Br)ccc2O)nc1C(C)(C)C [Compound No. 201],Inhibitory Ratio of NF-κ B Activation(%) Drug Concentration 1 μg/mL,NF-κ B; [3],86.8%
same,Inhibitory Ratio of NF-κ B Activation(%) Drug Concentration 10 μg/mL,NF-κ B; [4],97.5%
same,IC50,IL-6,317 nM
same,IC50,IL-8,599 nM
same,IC50,PGE2,53 nM
same,Inhibitory Ratio of Proliferation(%) Compound Concentration 250 nM,[2],59.8%
same,Inhibitory Ratio of Proliferation(%) Compound Concentration 500 nM,[2],84.4%
O=C(Nc1cc(C(F)(F)F)cc(C(F)(F)F)c1)c1cc(Br)ccc1O [compound 6],Inhibitory Ratio of NF-κ B Activation(%) Drug Concentration 1 μg/mL,NF-κ B; [3],94.9%
same,Inhibitory Ratio of NF-κ B Activation(%) Drug Concentration 10 μg/mL,NF-κ B; [4],98.6%
same,IC50,IL-6,352 nM
same,IC50,IL-8,351 nM
same,IC50,PGE2,358 nM
same,Inhibitory Ratio of Proliferation(%) Compound Concentration 250 nM,[2],88.0%
same,Inhibitory Ratio of Proliferation(%) Compound Concentration 500 nM,[2],94.8%
